Reference: patent US20040122068A1, “Pramipexole for the treatment of HIV dementia” (Boehringer Ingelheim Pharma GmbH & Co. KG, priority 2002, published 2004)

What was measured:
isolated mitochondria = assay: In vitro mitochondria test: H2O2 formation of isolated mitochondria (amplexRed/horseradish peroxidase kinetic test); format: biochemical; conditions: for Quantity of H2O2 formed: 5 mM succinate alone = 100.0
From the text: A. The Reduced H2O2 Formation of Isolated Mitochondria as In Vitro Parameters for Endogenous Radical Stress:
Mitochondria reduce 95% of the oxygen to water.
Overproduction and/or reduced detoxification of superoxide anion and hydrogen peroxide leads to the development of oxidative stress. This is crucially implicated in neuronal cell death in all kinds of neurodegenerative diseases.
In the presence of the energy substrate succinate, isolated mitochondria produce H2O2, which results from the dismutation of superoxide anion. In the presence of amplexRed™ and horseradish peroxidase, the fluorogenic chromophor resorufin is formed, which is measured and quantified in a kinetic test. The quantity of H2O2 formed by the mitochondria can be increased by the addition of the quinone analogue duroquinone.

aconitase = conditions: mice, oral, 4 days, 2×1 mg/kg/d; brain mitochondria; control (0.9% saline) 100±8%; n=4
Description: Mice (C57BL6) were treated with pramipexole by oral route for 4 days in a dose of 2×1 mg/kg KG/d. The animals were then anaesthetised, killed, their brains were removed and the mitochondria (location of the enzyme and site of the radical formation) were isolated. Then the activity was determined by means of a coupled optical test.

SMILES: CC1=C(C)C(=O)C(C)=C(C)C1=O [duroquinone]
- Quantity of H2O2 formed (isolated mitochondria; 5 mM succinate + 3 μM duroquinone): 152.2 ± 1.4%

SMILES: CCCNC1CCc2nc(N)sc2C1 (stereo not shown) [pramipexole, 2-amino-4,5,6,7-tetrahydro-6-n-propylamino-benzothiazole]
- Quantity of H2O2 formed (isolated mitochondria; 5 mM succinate + 3 μM duroquinone + 100 μM pramipexole): 58.3 ± 24.6%
- duroquinone-induced formation of H2O2 reduced to (isolated mitochondria; summary of Table 1): 50-60%
- aconitase activity (aconitase): 153±16%
